Measured values: US5707615A, “Method of treating HIV infections with anti-viral formulations” (Merrell Pharmaceuticals Inc., priority 1997, dated 1998)
Like-named read-outs stand apart in the source and are kept apart here.

Experiments:
HIV-I (GB8) = assay: Pretreatment of JM cells and block of HIV-I (GB8) infection (Example IV); conditions: pretreated overnight at 20 μg/mL
Method: JM cells were pretreated overnight at 37° C. with different compounds at 20 μg/mL or left untreated. The cells were washed 3 times in RPMI medium and then infected with HIV-I (GB8) for 2 hours at room temperature. The cells were again washed 3 times in RPMI medium and resuspended in fresh medium prior to being distributed into duplicate wells and incubated at 37° C. After 2 days syncytia were scored and the cell free supernatant fluid harvested and assayed for P24 viral core antigen using the Coulter™ HIV antigen assay.

HIV (Strain RF) = assay: Anti-HIV activity in C8166 cells infected with HIV strain RF: syncytia and p24 (Example VI); format: cell-based; conditions: for p24 % of VIRUS CONTROL: 2880 min
Method: Protocol: C8166 cells were infected with HIV (Strain RF) for 1 hour at room temperature to give a multiplicity of infection of approximately 0.01 infectious units per cell.

HIV (Strain GB8) = assay: JM cells infected with HIV strain GB8: syncytia and p24 (Example VII); format: cell-based; conditions: for p24 3 days p.i.: supernatant screened at 1/100 dilution
Method: JM cells were infected with HIV (Strain GB8) to give approximately 200 syncytia/1×10^5 cells after 3 days; virus infection was for 1 hour at room temperature.

MT4 cells = assay: Toxicity to MT4 cells (TD50, Table IV, MTT); format: cell-based; conditions: MT4 cells, 7 days, MTT
Method: (§1) Various oligomers were dissolved in RPMI and were then assayed for anti-HIV activity by making doubling dilutions of the solutions across a 96 well microtitre plate. To each well were then added 5×10^4 cells and 100 TCID50 of virus and the plates incubated at 37° C. for 7 days. MTT was added to each well and the plates incubated for a further 2 hours. The blue formazan crystals were dissolved using acidic isopropanol, and the absorbance measured at 540 nm.

HIV strain RF = assay: Ability to prevent virus-induced cell death using MT4 cells and strain RF (Example III); format: cell-based; conditions: MT4 cells, 7 days, MTT, 10080 min
Method: as §1

HIV-I (RF) = assay: Effect of treating HIV-I (RF)-infected cells (C8166) 24 hours post-infection (Example V, Table VII); conditions: for activity at 10 µM: Human immunodeficiency virus 1, C8166, 144 h, read-out: P24 % CONTROL, 10 μM
Method: Cells were infected with strain RF or GB8 for 24 hours at 37° C. at a multiplicity of infection of 0.001. Cells were washed three times to remove residual virus and then replated into fresh growth medium. Cells were then treated for 24 and 48 hours post-infection (p.i.) with the indicated concentrations of test compounds. Syncytia and P24 antigen levels were determined on the indicated days p.i. by methods described before.

Row | Compound | p24 Day 2 (HIV (Strain RF); 12 μg/ml) | p24 % of VIRUS CONTROL (HIV (Strain RF); 12 μg/ml) | p24 Day 2 (HIV (Strain RF); 25 μg/ml) | p24 % of VIRUS CONTROL (HIV (Strain RF); 25 μg/ml) | p24 Day 2 (HIV (Strain RF); 50 μg/ml) | p24 % of VIRUS CONTROL (HIV (Strain RF); 50 μg/ml) | p24 Day 2 (HIV (Strain RF); 100 μg/ml) | p24 % of VIRUS CONTROL (HIV (Strain RF); 100 μg/ml) | MEAN SYNCYTIA 3 days p.i. (HIV (Strain GB8); 25 μg/ml) | p24 3 days p.i. (HIV (Strain GB8); 25 μg/ml) | MEAN SYNCYTIA 3 days p.i. (HIV (Strain GB8); 50 μg/ml) | p24 3 days p.i. (HIV (Strain GB8); 50 μg/ml) | MEAN SYNCYTIA 3 days p.i. (HIV (Strain GB8); 100 μg/ml) | MEAN SYNCYTIA 3 days p.i. (HIV (Strain GB8); 200 μg/ml) | TD50 (MT4 cells) | ED50 (HIV strain RF) | also measured
1 | Dextran Sulfate [reference compound] | – | – | – | – | – | – | – | – | – | – | – | – | – | – | – | – | P24 (HIV-I (GB8)): 28710 pg/mL; MEAN SYNCYTIA (HIV-I (GB8); 2 days): 184; P24 % (HIV-I (GB8); % of control, 2880 min): 101%; SYNCYTIA % (HIV-I (GB8); % of control, 2880 min): 155%
2 | poly[oxy(2,5-disulfo-1,4-phenylene)oxycarbonyl], alpha-[(4-methylphenoxy)carbonyl]-omega-(4-methylphenoxy)- [Example 4] | 3050 pg/mL | 95% | 4820 pg/mL | 100% | 2820 pg/mL | 88% | 1930 pg/mL | 60% | 95 | 6500 pg/mL | 64 | neg | Toxic | Toxic | – | – | –
3 | poly[oxy(2,5-disulfo-1,4-phenylene)oxycarbonyl-1,4-phenylenecarbonyl]- [Example 7] | 3140 pg/mL | 98% | 1450 pg/mL | 45% | 870 pg/mL | 27% | neg | 0% | 43 | neg | 24 | neg | 7 | 0 | – | – | p24 3 days p.i. (HIV (Strain GB8); 100 μg/ml): neg; p24 3 days p.i. (HIV (Strain GB8); 200 μg/ml): neg
4 | poly[imino(2,5-disulfo-1,4-phenylene)iminocarbonyl], alpha-{[(4-methylphenyl)amino]carbonyl}-omega-[(4-methylphenyl)amino]- [Example 3B] | – | – | – | – | – | – | – | – | – | – | – | – | – | – | > 100 µg/mL | 1.7 mg/L | –
5 | poly[imino(3-sulfo-1,4-phenylene)-1,2-ethenediyl-(2-sulfo-1,4-phenylene)iminocarbonyl], alpha-{[(4-methylphenyl)aminocarbonyl}-omega-[(4-methylphenyl)amino- [Example 2B] | – | – | – | – | – | – | – | – | – | – | – | – | – | – | > 100 µg/mL | 2.5 mg/L | –
6 | Cc1cn([C@H]2C[C@H](N=[N+]=[N-])[C@@H](CO)O2)c(=O)[nH]c1=O [AZT, reference compound] | – | – | – | – | – | – | – | – | – | – | – | – | – | – | – | – | P24 DAY 6 p.i. (HIV-I (RF); 10 μM, addition 0 hours p.i.): 10000 pg/mL; SYNCYTIA/WELL DAY 2 (HIV-I (RF); 10 μM, addition 0 hours p.i.): 0; SYNCYTIA/WELL DAY 3 (HIV-I (RF); 10 μM, addition 0 hours p.i.): 0; P24 DAY 6 p.i. (HIV-I (RF); 10 μM, addition 24 hours p.i.): 44000 pg/mL; activity at 10 µM (HIV-I (RF); addition 0 hours p.i.): 1.1%; activity at 10 µM (HIV-I (RF); addition 24 hours p.i.): 4.6%; p24 Day 2 (HIV (Strain RF); 0.1 μg/ml): neg; SYNCYTIA Day 2 (HIV (Strain RF); 1 μg/ml): 0; p24 Day 2 (HIV (Strain RF); 1 μg/ml): neg; activity at 0.1 µg/mL (HIV (Strain RF); Human immunodeficiency virus 1, C8166, 48 h, 0.1 μg/ml, read-out: p24 % of VIRUS CONTROL): 0%; activity at 1 µg/mL (HIV (Strain RF); Human immunodeficiency virus 1, C8166, 48 h, 1 μg/ml, read-out: p24 % of VIRUS CONTROL): 0%
